Test results: patent publication EP3275434A1, “AN EXTENDED RELEASE ORAL DOSAGE FORM” (SANDOZ AG, priority 2016, dated 2018)

Columns and labels:
[1] = blood plasma concentration of veliparib against time, immediate release 400 mg twice a day; type: in vivo; conditions: 10 x 40 mg twice a day, daily dose 800 mg
Source text: The term peak plasma concentration is Cmax in blood plasma observed after administration. The term trough plasma concentration is Cmin in blood plasma observed after administration and just prior to the administration of a subsequent dose in a given dosage regimen. The veliparib plasma concentration can be determined according to the approach described in Mostafa et al., Cancer Chemother Pharmacol (2014) 74: 583-591. Pharmacokinetic terms have the typical meaning as recognized in the art and in case of doubt are to be interpreted according to the European Pharmacopoeia Version 8.8.
The present inventors have realized that the In-vivo plasma concentration profile of veliparib when administered as immediate release dosage forms at 400 mg BID, can be such that the blood plasma fluctuations are quite high. […] Thus, undesireably high peak concentrations are obtained in order to keep the trough concentration above a therapeutic threshold. In contrast, the extended release dosage form of the present invention enables the provision of therapeutically effective trough concentrations at all times without attaining such a high peak concentration. Moreover, when the extended release dosage form of the present invention is administered twice daily, even an overall dose reduction can be obtained while at the same time keeping the through concentration above the therapeutic threshold.
In this experiment 10 tablets containing 40 mg veliparib each prepared in accordance with Comparative example 1 are administered twice a day, 12h apart, to meet a daily dose of 800 mg. A plot displaying the pharmacokinetic behaviour of veliparib is obtained by plotting the blood plasma concentration of veliparib against time (Figure 1). […] The Cmax/Cmin ratio for veliparib is almost 7.

[2] = cited from earlier work

C[C@]1(c2nc3c(C(N)=O)cccc3[nH]2)CCCN1 [veliparib, 2-((R)-2-Methylpyrrolidin-2-yl)-1H-benzimidazole-4-carboxamide]
Cmax/Cmin ratio [1]: about 7 | Cmin [1]: around 0.5 µg/ml | Cmax ([1]; plasma, po, 400 mg): ~3500 ng/mL | side effects reported ([2]; immediate release tablet at 2 x 400 mg per day): anemia, fatigue, nausea, pain and cough | elimination half-life ([2]; in vivo): about 6 hours
